Data set [1] relates to T1, Mouse ACC (ACC protein purified from liver).
T1 construct: ACC protein was purified by taking advantage of the biotinylation in the carboxylase domain
Briefly: Mouse ACC enzymatic activity assay. In kind it is biochemical. The settings on record: read-out: EA-CoA mACC IC50. The protocol:
ACC protein was purified by taking advantage of the biotinylation in the carboxylase domain. Male C57BL/6J mice (Jackson Laboratory) at 8-12 weeks of age were euthanized by using CO2 inhalation method and liver was immediately frozen on dry ice. To 100 mg liver was added 1 mL ice-cold tissue lysis buffer (20 mM Tris-HCl pH 7.5, 150 mM NaCl, 1 mM Na2EDTA, 1 mM EGTA, 1% Triton, 2.5 mM sodium pyrophosphate, 1 mM 3-glycerophosphate, 1 mM Na3VO4, 1 μg/mL leupeptin, 1 tablet of protease inhibitor cocktail (Roche) per 10 mL lysis buffer) followed by homogenization on ice with Power Gen 125 homogenizer (Fisher Scientific). After 30 min incubation on ice, tissue lysate was passed through a 10 mL syringe with 18½ G needle for 10 times to shear DNA. The lysate was then subject to 17.5%-35% saturated ammonium sulfate precipitation by adding 880 mg ammonium sulfate powder (Sigma) to 10 mL liver lysate in 10 min with stirring on ice. Sample was centrifuged at 14,000 rpm (Eppendorf) at 4° C. for 10 min and supernatant was saved for further precipitation by adding 880 mg ammonium sulfate powder to 10 ml supernatant in 10 min with stirring on ice. Sample was centrifuged at 14,000 rpm at 4° C. for 10 min. Supernatant was discarded and pellet was dissolved in 10 mL sample buffer (100 mM Tris-HCl, pH 7.5, 1 mM EDTA, 0.1 mM DTT, 0.5 M NaCl, and 5% glycerol). The sample was then added with 1 mL of Strep Mag beads slurry (Genscript) and rotated at 4° C. for 1 hour. Supernatant was discarded and beads were washed with sample buffer for 3 times. Protein was then eluted by adding 10 mL of 2 mM biotin (Promega) prepared in sample buffer. The eluate was then dialyzed at 4° C. for 1 hour by using Slide-A-Lyzer™ Dialysis Cassettes 10K MWCO (Thermo Fisher Scientific) against 3 changes of 200 mL dialysis buffer (50 mM HEPES, pH 7.5, 0.1 mM DTT, 1.0 mM EDTA, and 10% glycerol). Total protein concentration was then quantitated by using BCA protein assay kit (Pierce).
For ACC enzymatic activity assay, 1 μL serial diluted compounds prepared in DMSO in duplicate were mixed with 8 μL dialyzed sample at 37° C. for 10 min. Ninety one L of reaction buffer (50 mM HEPES pH 7.5, 10 mM MgCl2, 2.0 mM DTT, 0.5 mM acetyl-CoA, 4.0 mM ATP, 15 mM ^13C-NaHCO3, 0.75 mg/mL BSA, 0.5 mM sodium citrate) was added to the tube and mixed thoroughly. After incubation at 37° C. for 1 hour, 300 μl ice-cold quenching buffer (acetonitrile:methanol=1:1, 20 μM carbutamide as internal standard) was added to each tube and mixed well to terminate the reaction. Samples were centrifuged at 14,000 rpm for 10 min (Eppendorf) and supernatant was loaded onto LC-MS/MS for quantitation of malonyl-^13C-CoA (Gao et al., Journal of chromatography B, Analytical technologies in the biomedical and life sciences 853, 303-313 (2007)).
Shimadzu LC system was used for sample analysis consisting of system controller (Shimadzu CBM-20A), autosampler (Shimadzu SIL-20A), pump A and B (Shimadzu LC-20AD), column oven (Shimadzu CTO-20A), and analytical column (Phenomenex Gemini 5u C18 11A, 100×2 mm). LC was running at 200 μL/min in the binary gradient mode with mobile phase A (5 mM Ammonium Acetate and 5 mM DMBA in water (1,3-Dimethylbutylamine)) and B (methanol). The samples were analyzed on an AB Sciex QTrap4000 LC-MS/MS triple quadrupole mass spectrometer (Applied Biosystems). Malonyl-CoA and malonyl-13C-CoA were monitored in positive ion mode following MRM transitions at 854.2/347.1 and 855.1/246.1, respectively. The product and internal standard were coeluted to the mass spectrometer in 3 s with 50% H2O, 25% MeCN, 25% acetone, and 5 mM ammonium acetate. Ion chromatograms were integrated using the Analyst 1.5.2 software. Peak area ratios were compared against a standard curve and final cellular concentration of malonyl-CoA or production rate of malonyl-13C-CoA was calculated as pmoles/mg protein per minute.

Data set [2] deals with 3T3-L1 adipocytes. Briefly: Lipogenesis of 3T3-L1 adipocytes. In kind it is cell-based. Conditions: Mus musculus, TG readout, read-out: LG-3T3 IC50. On the procedure: 3T3-L1 fibroblast cells (Zen-Bio) were grown in 96-well culture microplate (Corning) with growth media to around 90-100% confluency. Culture media was changed to differentiation media (growth media supplemented with 3-Isobutyl-1-Methylxanthine 500 μM, Dexamethasone 1 μM, insulin 10 μg/mL, and rosiglitazone 2 μM) plus serially diluted compounds prepared in DMSO (1:1000 dilution). After incubation for 2 days, media was changed to maintenance media (growth media supplemented with insulin 10 μg/mL) plus serially diluted compounds prepared in DMSO (1:1000 dilution) for around 1 week with media changed every 2 days. Upon completion of the treatment, culture media are discarded and 200 μL 0.01% SDS was added to each well and shaken for 1 hour to lyse the cells. Cell lysates were then transferred to 400 μL Folch's solution (chloroform: methanol=2:1) and mixed well. After centrifuge at 2,000 rpm for 20 min, 200 μL of the lower organic phase was transferred to a plate with 10 μL sample buffer (chloroform:Triton-100=3:1). Samples were blown dried under nitrogen and 200 μL triglyceride (TG) quantification reagent (Thermo Fisher Scientific) was added, mixed, and incubated at 37° C. for 30 min. TG concentration was determined by reading absorbance at 535 nm (Dynex MRX^e Magellan Biosciences) and calculated from standard curve.

For data set [3], the system named is Human sebocytes. Briefly: Proliferation of human sebocytes. Conditions: 24 hours, MTT, read-out: AP-Sebo IC50. In kind it is cell-based. On the procedure: Human sebocytes (Celprogen) and keratinocytes (ATCC) were grown in 96-well culture microplate (Coming) with growth media to around 50% confluency. Media was changed to growth media mixed with serially diluted compounds in DMSO (1:1000 dilution). After treatment for 24 hours, media was changed to 100 μL phenol red free DMEM and cell numbers were quantitated by using Vybrant® MTT Cell Proliferation Assay Kit (Molecular Probes). Ten μL of 12 mM MTT stock solution was added to each well and the microplate was incubated at 37° C. for 4 hours. Then 100 μL of the SDS-HCl solution was added to each well and mixed thoroughly using a pipette. The microplate was incubated at 37° C. for 4 hours in a cell culture incubator. The microplate was mixed again using a pipette and absorbance was read at 570 nm (Dynex MRX^e Magellan Biosciences). Effect of compounds on proliferation of human keratinocytes was calculated by % of DMSO vehicle control.

The test system of data set [4] is liver triglycerides (TG) in C57BL/6J mice. In words: Chronic treatment for reducing liver triglycerides in C57BL/6J mice. Type of data set: in vivo, mouse. The settings on record: male C57BL/6J mice; 30 mg per kilogram body weight in PEG400, oral gavage once per day for 2 weeks; FIG. 1, vs vehicle. On the procedure:
Male C57BL/6J mice (Jackson Laboratory) at around 9 weeks of age were treated with vehicle (0.5% methylcellulose or PEG400) or Example 14 (30 mg per kilogram body weight, dosing solution prepared in PEG400) and Example 20 (20 mg per kilogram body weight, dosing solution prepared in 0.5% methylcellulose) by oral gavage at ˜9:00 am, once per day for 2 weeks. Concentrations of Example 14 and Example 20 were 15 mg/ml and 2 mg/ml, respectively. The dosing volumes of Example 14 and Example 20 were 2 ml per kilogram body weight and 10 ml per kilogram body weight, respectively. After 14-day treatment, animals were euthanized in CO2 at 2 hours post dose and liver was frozen and kept on dry ice. Liver TG was measured by extracting lipids with chloroform:methanol 2:1 (v/v) followed by quantitation with Infinity™ Triglycerides Reagent (Thermo Scientific).

Data set [5] is described as follows: PK study in male C57 mouse for Examples 14 and 15. In kind it is in vivo. Conditions: for concentration at 0.5 h: 0.50 h. On the procedure:
Pharmacokinetic studies were carried out with male C57 mouse. Compounds (Example 14 and Example 15) were each formulated in 5% DMSO+10% Solutol HS 15+85% Saline, and dosed at 1 mpk for IV injection (5 mL/kg) and 10 mpk for oral gavage (10 mUkg). Plasma samples at various time points were quantitated with LC-MS. Data reported were average of three mice.
Tables 1 and 2 below show plasma concentrations (ng/mL) and PK parameters of Example 14 in male C57 mouse after 1 mpk IV injection and 10 mpk PO gavage, respectively. The plasma concentration (ng/mL) of the acid compound, Example 15, was also measured and reported below.
Tables 3 and 4 below show plasma concentrations (ng/mL) and PK parameters of Example 15 in male C57 mouse after 1 mpk IV injection and 10 mpk PO gavage, respectively.

Setting [6] is: male, C57, mouse, plasma, iv, 1 mg/kg, Example 14 dosed 1 mpk IV, analyte = labelled compound.
Where [7] appears, read: male, C57, mouse, plasma, po, 10 mg/kg, Example 14 dosed 10 mpk PO gavage, analyte = labelled compound.
The mark [8] stands for this setting: plasma, 1 mg/kg, Example 14 dosed 1 mpk IV.

“Also recorded” adds a separate entry of the source.

For the molecule `CCc1ccc2c(c1)C(=O)OC1(CCN(C(=O)c3cc(OC)c4cccc(OC)c4c3)CC1)C2` [Example 3, 1′-(4,8-dimethoxy-2-naphthoyl)-7-ethylspiro[isochroman-3,4′-piperidin]-1-one], the results for the IC50 in data set [1], in data set [2] and in data set [3] were 3.4 nM, 1.4 nM and 44.4 nM, respectively.
Take `CCc1ccc2c(c1)C(=O)OC1(CCN(C(=O)c3cc(OC)c4cccc(OC)c4n3)CC1)C2` [Example 4, 1′-(4,8-dimethoxyquinoline-2-carbonyl)-7-ethylspiro[isochroman-3,4′-piperidin]-1-one]: the IC50 stood at 11.3 nM in data set [1], 27.7 nM in data set [2] and 148 nM in data set [3].
For the molecule `COC(=O)c1cncc(-c2ccc3c(c2)C(=O)OC2(CCN(C(=O)c4cc(OC)c5cccc(OC)c5n4)CC2)C3)c1` [Example 14, methyl 5-(1′-(4,8-dimethoxyquinoline-2-carbonyl)-1-oxospiro[isochroman-3,4′-piperidin]-7-yl)nicotinate], the “Liver TG” value in data set [4] is recorded as “reduced liver triglycerides; also recorded: reduced liver TG”. Besides, the “Plasma Concentration, Mean” value in data set [5] (Example 14 dosed 1 mpk IV, 8.00 h, analyte = labelled compound) is recorded as “BLQ”. Also, the “Plasma Concentration, Mean” value in data set [5] (Example 14 dosed 1 mpk IV, 24.00 h, analyte = labelled compound) is recorded as “BLQ”. Moreover, the F in data set [5] (Example 14 dosed 10 mpk PO gavage) is given as 88%. For the same molecule, the “Plasma Concentration, Mean” value in data set [5] (Example 14 dosed 10 mpk PO gavage, 24.00 h, analyte = labelled compound) is “BLQ”. Also, the MRT in data set [5] (male, C57, mouse, plasma, iv, 1 mg/kg, Example 14 dosed 1 mpk IV) came to 24.6 min. In data set [5] (male, C57, mouse, plasma, iv, 1 mg/kg, Example 14 dosed 1 mpk IV, 0.08 h, analyte = labelled compound), this molecule came in with a concentration at 0.08 h of 1880 ng/mL. Moreover, in data set [5] (setting [6]), the concentration at 0.25 h is 1080 ng/mL, the concentration at 0.5 h was 521 ng/mL, the concentration at 1 h came to 199 ng/mL and the concentration at 2 h amounted to 30 ng/mL. In addition, the concentration at 4 h in data set [5] (setting [6]) was 4.4 ng/mL. In data set [5] (setting [7]), this molecule gave a concentration at 0.25 h of 3660 ng/mL, a concentration at 0.5 h of 5970 ng/mL, a concentration at 1 h of 3160 ng/mL and a concentration at 2 h of 1010 ng/mL. Also, in data set [5] (setting [7]), the concentration at 4 h worked out at 345 ng/mL, the concentration peaked (Cmax) at 6330 ng/mL, the MRT is 96 min and the Tmax is 25.2 min. Also, the concentration at 8 h in data set [5] (male, C57, mouse, plasma, po, 10 mg/kg, Example 14 dosed 10 mpk PO gavage, 8.00 h, analyte = labelled compound) was 125 ng/mL. In data set [5] (setting [8]), this molecule showed a Vd of 0.49 L/kg, a clearance of 18.5 mL/min/kg and a half-life of 19.2 min.

The term IC50 denotes the concentration that gives 50% inhibition. Broadly, the MRT is a mean duration of stay, worked out from the concentration-time curve. In general, Cmax refers to the maximum level reached in the sampled fluid or tissue. In general, Tmax refers to the time from dosing to the highest level. In general, Vd refers to the apparent volume that relates the amount in the body to the concentration in plasma or blood. Read a low Vd as little distribution into tissue. What is called clearance is the volume of plasma or blood freed of the substance per unit of time. A higher clearance goes with efficient removal. A word on the half-life: it is the time needed for the level to fall by half in the phase considered. A high value points to slow decline.

(Values after patent US12102633B2, “Spirolactone compounds” (Quixgen, Inc., priority 2017, dated 2024).)
